The numbers were not newly measured in article PMC12580894 (Cancer Research Communications, 2025), which cites them from elsewhere.

For data set [1], the system named is patients with advanced solid tumours. The settings on record: berzosertib with cisplatin.
For data set [2], the system named is untreated advanced urothelial carcinoma.

`CNCc1ccc(-c2cc(-c3nc(-c4ccc(S(=O)(=O)C(C)C)cc4)cnc3N)on2)cc1` [berzosertib]: the “patients with a confirmed PR” value in data set [1] (despite prior platinum exposure, 31 patients) is given as “Two”. Moreover, the “most common AEs” value in data set [1] (phase I) is “hematologic in nature”. In addition, the DLTs observed result in data set [1] (phase I, 31 patients) is “a grade 3 hypersensitivity reaction and a grade 3 increase in alanine aminotransferase”. Besides, the Hematologic toxicity rates result in data set [2] (GC plus berzosertib versus GC alone) is listed as “higher”. In addition, in data set [2] (gemcitabine and cisplatin (GC) with or without berzosertib), the “clinical benefit upon the addition of berzosertib” value was “no clinical benefit”.
